Counter-ions that a name gives are not always drawn.
Key:
[1] = Compound loss (PDMS ad- and absorption) in cell-free organ-chips; assay type: in vitro ADME; settings: for Compound Loss Bottom Channel (%) / Compound Loss Top Channel (%): 10 µM per drug in cocktail, outlet vs inlet after one hour at 200 µL/h, mean of two experiments
Excerpt: S-1® Organ-Chips from Emulate Inc. (Boston, MA, USA) comprise 2 parallel channels (top and bottom) for cell culture, which are superimposed and separated via a porous membrane, all made of polydimethylsiloxane (PDMS). The 50 µm thick membrane contains pores of a diameter of 7 µm, which are spaced 40 µm apart from each other. In addition, 2 more channels, in which a vacuum can be applied to laterally stretch the cell culture channels, flank the cell culture channels horizontally. The top channel has a size of 1000 × 1000 µm (width × height), a culture area of 28 mm^2, and a volume of 28 µL. The bottom channel has a size of 1000 × 200 µm (width × height), a culture area of 24.5 mm^2, and a volume of 5.6 µL. Both channels share an area of 17.1 mm^2 of the porous membrane as a coculture area. To conduct experiments, each organ-chip is inserted into a cell culture container called Pod®, which connects 4 physically separated fluid reservoirs with the in- and outlets of the top and bottom channels. […] The Zoë module controls, as well as regulates, the vacuum and pressured gas flows generated by the Orb hub module, which also powers the Zoë module.
Compound loss experiments in cell-free organ-chips were performed with used chips after removal of the cells and washing-out of previously perfused compounds (Section 4). […] The compound concentrations in the outlets were measured via liquid chromatography-tandem mass spectrometry (LC-MS/MS, Section 2.8) after a period of one hour, with a flow rate of 200 µL/h (manufacturer’s instruction), and relatively compared to the inlet concentrations, and the difference was reported as the percent drug absorbed. The experiments were performed in duplicate.

Caco-2/HUVEC gut-on-chip [2] = experiment: Metabolite identification in Caco-2/HUVEC gut-on-chip; settings: for fraction of the total amount of all metabolites (peak areas): testosterone 10 µM perfused 2 h at 200 µL/h, top and bottom outlets
Method: The analysis was performed on an LC-MS system containing a Vanquish UPLC (ThermoFisher Scientific, San Jose, CA, USA) coupled to an Orbitrap FusionTribrid high-resolution mass spectrometer (ThermoFisher Scientific). The structural elucidation was based on exact mass measurements in combination with the interpretation of fragment spectra.

P-gp [3] = experiment: Bidirectional permeability assay in Caco-2/HUVEC gut-on-chip; assay type: cell-based, human; settings: human, pH 7.4; Caco-2/HUVEC gut-on-chip, day 10; 10 µM; no inhibitor; read-out: efflux ratio, control
Method: (§1) The Caco-2/HUVEC gut-on-chip was prepared according to the Caco-2/HUVEC gut-on-chip protocol provided by Emulate Inc. Briefly, on day −1 of the protocol, the PDMS membrane was activated using Emulate reagent (ER) 1 dissolved in ER 2 solution at a concentration of 0.5 mg/mL. The top channels were filled with 50 µL and the bottom channels with 20 µL of ER 1 solution and then treated under UV light for 10 min. Next, activated ER 1 solution was aspirated from both channels and exchanged with fresh ER 1 solution after which the chips were again exposed to UV light for 5 min. The two channels were then subsequently washed with ER 2 solution followed by ice-cold PBS. After the PBS was fully aspirated from both channels, the chips were coated with 100 µg/mL Matrigel and 30 µg/mL collagen type I in PBS overnight at 37 °C. On day 0 of the protocol, both channels were washed with HUVEC culture medium before 0.14 × 10^6 viable HUVECs in 20 µL HUVEC culture medium were seeded in the bottom channel. The chips were inverted and HUVECs were allowed to adhere for at least 2 h to the porous PDMS membrane. Afterwards, the chips were inverted again, and the top channel was filled with enough Caco-2 culture medium to also cover the in- and outlets (~100 µL). Caco-2 cells were seeded in the top channel (0.15 × 10^6 viable cells in 50 µL Caco-2 culture medium). […]

P-gp [4] = experiment: in vitro; settings: human, Caco-2
Method: Either the top (A–B direction) or bottom (B–A direction) channel served as the donor compartments and the respective other channels (A–B: bottom; B–A: top) as receiver compartments. […] Following an Emulate protocol, dosing of a cocktail of both compounds at 10 µM in transporter buffer was initiated via a drug introduction step (flow rate of 600 µL/h for 10 min), after which the outlets were aspirated. The outlet concentrations were determined after one hour (flow rate: 200 µL/h). […] The samples from the receiver outlets were used for the bioanalysis without dilution. The samples from the donor inlets, as well as outlets, were diluted 1:50 (v/v) in transport buffer. All samples were spiked with the internal standard and used for the LC-MS/MS analysis, as described in Section 2.8.

Caco-2/HUVEC gut-on-chip [5] = experiment: Bidirectional permeability assay in Caco-2/HUVEC gut-on-chip; assay type: cell-based, human; settings: coperfusion with elacridar 10 µM in Caco-2/HUVEC gut-on-chip
Method: as §1

P-gp [6] = biological target: T1, P-gp (Homo sapiens, UniProt P08183); experiment: Inhibition of P-gp mediated Quinidine efflux in MDCK-MDR1 cells; assay type: cell-based; settings: probe quinidine, Supplementary Table S2
T1 construct: expressed in transfected cells; host or cells: MDCK-MDR1 cells
T1 sequence (P08183 whole entry): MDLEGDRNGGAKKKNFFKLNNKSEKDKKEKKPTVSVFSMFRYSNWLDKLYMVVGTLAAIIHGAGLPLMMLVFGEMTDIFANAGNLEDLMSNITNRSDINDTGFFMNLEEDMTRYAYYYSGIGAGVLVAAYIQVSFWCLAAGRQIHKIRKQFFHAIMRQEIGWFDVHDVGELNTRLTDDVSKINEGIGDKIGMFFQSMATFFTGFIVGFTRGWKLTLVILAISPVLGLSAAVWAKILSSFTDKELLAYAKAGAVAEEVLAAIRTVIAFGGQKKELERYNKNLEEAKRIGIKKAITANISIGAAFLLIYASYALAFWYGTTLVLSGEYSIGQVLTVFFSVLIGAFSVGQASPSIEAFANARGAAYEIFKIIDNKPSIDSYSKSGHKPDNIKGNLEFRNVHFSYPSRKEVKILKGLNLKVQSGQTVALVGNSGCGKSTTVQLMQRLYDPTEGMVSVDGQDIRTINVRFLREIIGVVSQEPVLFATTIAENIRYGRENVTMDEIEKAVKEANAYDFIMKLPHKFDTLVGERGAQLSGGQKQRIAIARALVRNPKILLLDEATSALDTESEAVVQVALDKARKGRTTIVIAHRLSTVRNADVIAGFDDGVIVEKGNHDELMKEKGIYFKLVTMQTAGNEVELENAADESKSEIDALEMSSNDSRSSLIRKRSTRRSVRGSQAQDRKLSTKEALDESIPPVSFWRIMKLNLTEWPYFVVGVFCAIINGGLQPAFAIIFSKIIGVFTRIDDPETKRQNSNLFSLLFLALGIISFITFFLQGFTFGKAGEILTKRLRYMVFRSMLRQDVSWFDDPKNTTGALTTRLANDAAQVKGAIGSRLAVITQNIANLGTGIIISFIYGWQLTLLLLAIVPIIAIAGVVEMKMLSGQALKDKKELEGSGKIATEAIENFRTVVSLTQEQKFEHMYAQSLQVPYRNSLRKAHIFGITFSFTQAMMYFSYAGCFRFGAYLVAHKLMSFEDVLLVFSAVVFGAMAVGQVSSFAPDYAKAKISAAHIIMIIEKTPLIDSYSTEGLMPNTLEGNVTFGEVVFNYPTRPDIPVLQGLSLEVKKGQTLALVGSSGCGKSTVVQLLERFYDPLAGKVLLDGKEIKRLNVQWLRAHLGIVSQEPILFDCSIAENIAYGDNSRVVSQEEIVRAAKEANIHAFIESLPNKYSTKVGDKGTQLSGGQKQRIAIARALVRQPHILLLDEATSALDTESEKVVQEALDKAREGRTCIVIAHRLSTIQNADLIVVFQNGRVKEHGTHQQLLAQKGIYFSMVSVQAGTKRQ

Caco-2/HUVEC gut-on-chip [7] = experiment: Time-resolved testosterone loss, clearance, permeability and mass balance in Caco-2/HUVEC gut-on-chip
Method: The Caco-2/HUVEC gut-on-chip was prepared according to the Caco-2/HUVEC gut-on-chip protocol provided by Emulate Inc. Briefly, on day −1 of the protocol, the PDMS membrane was activated using Emulate reagent (ER) 1 dissolved in ER 2 solution at a concentration of 0.5 mg/mL. The top channels were filled with 50 µL and the bottom channels with 20 µL of ER 1 solution and then treated under UV light for 10 min. Next, activated ER 1 solution was aspirated from both channels and exchanged with fresh ER 1 solution after which the chips were again exposed to UV light for 5 min. The two channels were then subsequently washed with ER 2 solution followed by ice-cold PBS. After the PBS was fully aspirated from both channels, the chips were coated with 100 µg/mL Matrigel and 30 µg/mL collagen type I in PBS overnight at 37 °C. On day 0 of the protocol, both channels were washed with HUVEC culture medium before 0.14 × 10^6 viable HUVECs in 20 µL HUVEC culture medium were seeded in the bottom channel. The chips were inverted and HUVECs were allowed to adhere for at least 2 h to the porous PDMS membrane. Afterwards, the chips were inverted again, and the top channel was filled with enough Caco-2 culture medium to also cover the in- and outlets (~100 µL). Caco-2 cells were seeded in the top channel (0.15 × 10^6 viable cells in 50 µL Caco-2 culture medium). Caco-2 cells were also allowed to adhere for 2 h and then the channels were filled with the respective media and incubated overnight at 37 °C. On day 1, the inlet reservoirs of the Pods were filled with 3 mL of the respective degassed media, and the chips were connected to the Pods. The Pods were then placed into the Zoë module, and a flow at a rate of 30 µL/h (manufacturer’s instruction) was applied for both channels. From day 3 onwards, the HUVECs were cultured in HUVEC culture medium but with 0.5% FCS. On day 3, 10% lateral, peristalsis-like stretch was activated with a frequency of 0.15 Hz (manufacturer’s instruction). On day 8, the FCS concentration in the Caco-2 culture medium was reduced from 20% to 10%. Medium reservoirs were replenished with fresh medium 2–3 times per week.
The cell-free organ-chips were previously utilized in experiments with cells and were prepared in the same way as described for the compound loss studies above. The Caco-2/HUVEC gut-on-chip was cultivated under the conditions described for standard cell culture until day 13. […] An introduction step with a high flow rate of 600 µL/h is recommended by the manufacturer to “saturate” the ad- and absorptions of compounds by the PDMS material. […] The samples from the bottom outlet were used directly for bioanalytical quantification. […]
A quantitative bioanalysis was performed with a fit-for-purpose assay using protein precipitation followed by LC-MS/MS. […]

[8] = Time-resolved testosterone loss and chip-specific clearance in cell-free organ-chips
Method: The cell-free organ-chips were previously utilized in experiments with cells and were prepared in the same way as described for the compound loss studies above. The Caco-2/HUVEC gut-on-chip was cultivated under the conditions described for standard cell culture until day 13. […] An introduction step with a high flow rate of 600 µL/h is recommended by the manufacturer to “saturate” the ad- and absorptions of compounds by the PDMS material. The necessity of this step will be discussed in Section 3 and Section 4. After the introduction step, both outlets were aspirated. […] During the sampling, the flow was stopped for a few seconds, a Pod®, which included a chip, was removed from the Zoë, a single chip removed from the Pod®, and samples were taken. The samples from the bottom outlet were used directly for bioanalytical quantification. The samples from the top inlet and top outlet were sampled from the respective reservoirs and diluted 1:50 (v/v) in transport buffer. The chips were subsequently dismantled from the Pods, and samples from the top channel and bottom channel were taken with a pipette via the outlets (Figure 1A). The samples from the top channel were diluted 1:50 (v/v) and the samples from the bottom channel 1:2 (v/v) in transport buffer.
The outlet reservoirs contained, therefore, perfusates from time zero to time point t. […] A period of 60 min was chosen because it was recommended by the manufacturer for diverse applications. […] For time points before 60 min, Ct,last was identical to Ct,cum by definition. Vt is the total volume of perfusate collected from time zero to t. Vt was calculated with the following equation:(4) Vt=t÷60×Q
The time profiles of Ct,last in the cell-free organ-chips and in the Caco-2/HUVEC gut-on-chip are shown in Figure 6A,B. Using Ct,last, the compound loss can be calculated in each putative collecting period of 60 min with the following equation:(5) Losst=Cinlet−Ct, last, top−Ct, last, bottom×Q

[9] = cell-free organ-chips, testosterone 10 µM, 200 µL/h

## C[C@]12CCC(=O)C=C1CC[C@@H]1[C@@H]2CC[C@]2(C)C(=O)CC[C@@H]12 [4-androstenedione]
[1]; Supplementary Table S1
  compound loss in cell-free organ-chips (in words, relative to testosterone): much higher compound loss
Caco-2/HUVEC gut-on-chip [2]
  fraction of the total amount of all metabolites (peak areas): 96.5%

## Cc1nnc2n1-c1sc(CCC(=O)N3CCOCC3)cc1C(c1ccccc1Cl)=NC2 [Apafant]
P-gp [3]
  efflux ratio at 1 h, 10 µM: 22.2
[1]; cell-free organ-chips
  Compound Loss Bottom Channel (%): 8.0%
  Compound Loss Top Channel (%): 15.0%
P-gp [4]
  efflux ratio: 12.4 ± 7.8

## CC(C)c1c(C(=O)Nc2ccccc2)c(-c2ccccc2)c(-c2ccc(F)cc2)n1CC[C@@H](O)C[C@@H](O)CC(=O)O [Atorvastatin]
[1]; cell-free organ-chips
  Compound Loss Bottom Channel (%): 7.4%
  Compound Loss Top Channel (%): 18.9%

## Cc1c(-c2ccc(O)cc2)n(Cc2ccc(OCCN3CCCCCC3)cc2)c2ccc(O)cc12 [Bazedoxifene]
[1]; cell-free organ-chips
  Compound Loss Bottom Channel (%): 26.0%
  Compound Loss Top Channel (%): 56.4%

## O=C1CC2(CCCC2)CC(=O)N1CCCCN1CCN(c2ncccn2)CC1 [Busiprone]
[1]; cell-free organ-chips
  Compound Loss Bottom Channel (%): 30.5%
  Compound Loss Top Channel (%): 33.1%

## COc1cc2c(cc1OC)CN(CCc1ccc(NC(=O)c3cccc4c(=O)c5cccc(OC)c5[nH]c34)cc1)CC2 [Elacridar]
Caco-2/HUVEC gut-on-chip [5]
  inhibition of the efflux of Apafant: completely
P-gp [6]
  IC90: ~1000 nM

## O=C1[C@H](CC[C@H](O)c2ccc(F)cc2)[C@@H](c2ccc(O)cc2)N1c1ccc(F)cc1 [Ezetemibe]
[1]; cell-free organ-chips
  Compound Loss Bottom Channel (%): 1.3%
  Compound Loss Top Channel (%): 0.0%

## CCOC(=O)C1=C(C)NC(C)=C(C(=O)OC)C1c1cccc(Cl)c1Cl (centres unmarked) [Felodipine]
[1]; cell-free organ-chips
  Compound Loss Bottom Channel (%): 84.0%
  Compound Loss Top Channel (%): 79.0%

## Cc1ncc2n1-c1ccc(Cl)cc1C(c1ccccc1F)=NC2 [Midazolam]
[1]; cell-free organ-chips
  Compound Loss Bottom Channel (%): 67.8%
  Compound Loss Top Channel (%): 72.1%

## CCN(CC)CC#CCOC(=O)C(O)(c1ccccc1)C1CCCCC1 (centres unmarked) [Oxybutynin]
[1]; cell-free organ-chips
  Compound Loss Bottom Channel (%): 100.0%
  Compound Loss Top Channel (%): 99.9%
[1]; cell-free organ-chips, 10 µM, one hour, 200 µL/h, top and bottom channels
  PDMS compound loss during the one-hour period (in words): complete

## C=C[C@H]1C[N@@]2CC[C@H]1C[C@@H]2[C@@H](O)c1ccnc2ccc(OC)cc12 [Quinidine]
[1]; cell-free organ-chips
  Compound Loss Bottom Channel (%): 13.4%
  Compound Loss Top Channel (%): 0.3%

## CC(C)c1nc(N(C)S(C)(=O)=O)nc(-c2ccc(F)cc2)c1/C=C/[C@@H](O)C[C@@H](O)CC(=O)O [Rosuvastatin]
[1]; cell-free organ-chips
  Compound Loss Bottom Channel (%): 7.9%
  Compound Loss Top Channel (%): 12.6%

## CC(C)(C)NC(=O)[C@@H]1C[C@@H]2CCCC[C@@H]2CN1C[C@@H](O)[C@H](Cc1ccccc1)NC(=O)[C@H](CC(N)=O)NC(=O)c1ccc2ccccc2n1 [Saquinavir]
[1]; cell-free organ-chips
  Compound Loss Bottom Channel (%): 21.9%
  Compound Loss Top Channel (%): 48.0%

## C[C@]12CC[C@H]3[C@@H](CCC4=CC(=O)CC[C@@]43C)[C@@H]1CC[C@@H]2O [Testosterone]
Caco-2/HUVEC gut-on-chip [7]; Caco-2/HUVEC gut-on-chip, 10 µM via top inlet, 200 µL/h, 135 min
  maximum testosterone concentration (top channel and outlet): < 2000 nM
Caco-2/HUVEC gut-on-chip [7]; Caco-2/HUVEC gut-on-chip, first sample time point
  time to steady state: ≤ 15 min
Caco-2/HUVEC gut-on-chip [7]; collecting period 75-135 min, flow 200 µL/h
  clearance (total) in Caco-2/HUVEC gut-on-chip: 172.1 µL/h
Caco-2/HUVEC gut-on-chip [7]; total clearance minus chip-specific clearance, flow 200 µL/h
  metabolic clearance in the gut-on-chip: 160.4 µL/h
[8]; cell-free organ-chips, 10 µM via top inlet, 200 µL/h, 135 min
  final testosterone concentration in the bottom channel and outlet: < 1000 nM
[8]; cell-free organ-chips, 10 µM via top inlet, 200 µL/h, reached over 135 min
  testosterone concentration in the top channel and outlet: ~ 7000 nM
[8]; cell-free organ-chips, collecting period 75-135 min, flow 200 µL/h
  clearance (chip-specific / chip-intrinsic clearance): 11.7 µL/h
[8]; [9]
  compound loss during the first 60 min of the collecting period: 719.1 pmol/h
  compound loss in the last 60 min of the collecting period: 116.5 pmol/h
[8]; corresponds to 11.7 µL/h at flow 200 µL/h
  compound loss corresponding to chip-intrinsic clearance: 6%
[1]; cell-free organ-chips
  Compound Loss Bottom Channel (%): 35.1%
  Compound Loss Top Channel (%): 37.6%
Caco-2/HUVEC gut-on-chip [2]; Caco-2/HUVEC gut-on-chip
  CYP3A4-related hydroxylation of testosterone: did not detect

## O[C@@H](COc1cccc2ncccc12)CN1CCN([C@@H]2c3ccccc3[C@@H]3[C@H](c4ccccc42)C3(F)F)CC1 [Zosuquidar]
[1]; cell-free organ-chips, 10 µM
  compound loss after 1 h of perfusion: ~100%
[1]; cell-free organ-chips
  Compound Loss Bottom Channel (%): 99.0%
  Compound Loss Top Channel (%): 97.0%

## C[C@]12CC[C@H]3[C@@H](CCC4=CC(=O)CC[C@@]43C)[C@@H]1CC[C@@H]2O[C@@H]1O[C@H](C(=O)O)[C@@H](O)[C@H](O)[C@H]1O [testosterone glucuronide]
Caco-2/HUVEC gut-on-chip [2]
  fraction of the total amount of all metabolites (peak areas): 3.2%

## C[C@]12CC[C@H]3[C@@H](CCC4=CC(=O)CC[C@@]43C)[C@@H]1CC[C@@H]2OS(=O)(=O)O [testosterone sulfate]
Caco-2/HUVEC gut-on-chip [2]
  fraction of the total amount of all metabolites (peak areas): 0.3%
